Measured values: US20250268840A1, “USE OF NANO-CARRIERS FOR DELIVERY OF ACTIVE AGENTS” (LANDA LABS (2012) LTD., priority 2022, published 2025)
Each block holds one compound with its values, some of them ahead of it.

What was measured:
[1] = Thermo-rheometer viscosity of WITC (PCL), unplasticized or blended with plasticizing agents / premixes; assay type: physicochemical
Experimental: Thermo-rheometer: Thermo Scientific (Germany) Haake Mars III, with a C20/1° spindle, a gap of 0.052 mm, and a shear rate of 10 sec^−1. […]
Samples corresponding to the above-described premixes were additionally tested for their viscosity at the end of the mixing step, when the WITCs were at least homogeneously blended with the polar-carrier-insoluble materials, and in most case plasticized by the non-volatile liquids if present. Viscosity was determined as previously described at a shear rate of 10 sec^−1 over a range of temperatures between 20° C. and 80° C., and for all samples so tested the viscosity as measured at 50° C. was typically found to be of less than 10^6 mPa·s, being generally between 10^3 mPa·s and 10^5 mPa·s, often not exceeding 5×10^4 mPa·s, and many samples even having a viscosity of less 10^4 mPa·s.
In a first series of experiments, the viscosity was measured on blends of materials forming a homogeneous mass adapted for nano-sizing by the present methods. PCL and a non-volatile liquid or a fatty amine serving as SFA at various weight per weight ratios were combined in a glass vial and the sealed vials were placed in an oven pre-heated to 80° C. The PCL: non-volatile liquid ratios tested were 1:1 and 1:2.33 and the PCL: fatty amine ratios tested were 1:0.1, 1:0.33, 1:0.5 and 1:1. Following 1 hour of incubation under heat, the contents of the vials were mixed by hand for about 30 seconds, until clear solutions were obtained. The samples were allowed to cool down overnight (i.e., at least 12 hours) at room temperature so as to solidify.
Solid samples were then transferred to a rheometer where their respective viscosity was measured as a function of temperature between room temperature and 70° C. at a ramping up temperature of 10° C./min. The viscosities (or 2nd viscosities) of the samples as measured at 50° C. and 70° C. are summarized in Table 2-II(A), including in the first row the first viscosities of a reference sample made of PCL alone, unplasticized, under same conditions.

[2] = Pharmacokinetic study of tadalafil in plasma after oral administration; assay type: in vivo, rats (Sprague Dawley); conditions: rats
Experimental: The following pharmacokinetic (PK) study was conducted to determine the efficacy of a composition according to the present teachings, following its oral administration to rats.
Nine young adult healthy rats (Sprague Dawley), having an initial mean body weight of about 243.1 +1.8 g, were used in this study. They were individually tail marked and housed within a limited access caged rodent facility. The rats were randomly divided into groups of 3, and were kept with their groups in cages, in a controlled environment at a temperature of 17-23° C., with a relative humidity (RH) of 30-70%, a 12:12 hour light:dark cycle and 15 air changes/h in the study room. […]
Nano-dispersion ND39, as listed in Table 5-II, was used as the tested composition. ND39 contains tadalafil as the polar-carrier insoluble active agent present in the core of the nano-elements, and its concentration in the rats' blood was monitored. […]
The plasma samples were combined with acetone, allowing the dissolution of the nano-elements and making the tadalafil available for measuring, followed by centrifugation whereby plasma proteins were precipitated. The obtained supernatant was removed and analyzed by LC-MS/MS vs. a tadalafil calibration curve prepared in advance, in the range of 1 ng/ml to 10 ug/ml. […]

[3] = PCL:plasticizing agent w/w ratio 1:0.33
[4] = PCL:plasticizing agent w/w ratio 1:0.5
[5] = PCL:plasticizing agent w/w ratio 1:1
[6] = PCL:plasticizing agent w/w ratio 1:2.33

PCL 2nd viscosity at 50° C. [mPa · s] [1, 3]: 1.9 × 10^3 mPa · s
PCL 2nd viscosity at 70° C. [mPa · s] [1, 3]: 1.7 × 10^3 mPa · s
PCL 2nd viscosity at 50° C. [mPa · s] [1, 4]: 6.7 × 10^3 mPa · s
PCL 2nd viscosity at 70° C. [mPa · s] [1, 4]: 4.4 × 10^3 mPa · s
Structure (SMILES): CCCCCCCC/C=C\CCCCCCCCN [Oleyl amine]

% CV of plasma tadalafil concentration, average for all time points ([2]; 3 animals per time point): 31.1%
AUC0-∞/D (area under curve zero to infinity normalized to dose of tadalafil) ([2]; ND39 about 16 mg/kg, Ref. C about 18.7 mg/kg, Ref. T about 18.1 mg/kg): about 1,249 h.mg/ml
Structure (SMILES): CN1CC(=O)N2[C@H](c3ccc4c(c3)OCO4)c3[nH]c4ccccc4c3C[C@@H]2C1=O [Ref. T, Tadalafil]

PCL 2nd viscosity at 50° C. [mPa · s] [1, 5]: 5.0 × 10^3 mPa · s
PCL 2nd viscosity at 70° C. [mPa · s] [1, 5]: 2.2 × 10^3 mPa · s
PCL 2nd viscosity at 50° C. [mPa · s] [1, 6]: 215 mPa · s
PCL 2nd viscosity at 70° C. [mPa · s] [1, 6]: 164 mPa · s
Structure (SMILES): CCCCOC(=O)CCCCC(=O)OCCCC [Cetiol ® B, Dibutyl adipate]

PCL 2nd viscosity at 50° C. [mPa · s] [1, 5]: 544 mPa · s
PCL 2nd viscosity at 70° C. [mPa · s] [1, 5]: 279 mPa · s
Structure (SMILES): CCCCCCCCN(CCCCCCCC)CCCCCCCC [Trioctyl amine]
